# From US8691757B2 (Bristol-Myers Squibb Company, priority 2011, dated 2014)
# Tests used:
# [1] = tested on: HCV genotype 1a (H77 strain) replicon in HUH-7 cells; assay: HCV replicon luciferase reporter assay, genotype 1a; type: cell-based; conditions: Hepatitis C virus, 72 h, HCV genotype 1a replicon, 3 days incubation, Renilla luciferase, range classes
# Description: (§1) An HCV replicon whole cell system was established as described by Lohmann V, Korner F, Koch J, Herian U, Theilmann L, Bartenschlager R., Science 285(5424):110-3 (1999) and modified to introduce a luciferase reporter, as first described by Krieger et al (Krieger N, Lohmann V, and Bartenschlager R, J. Virol. 75(10):4614-4624 (2001)). CDNA encoding a humanized form of the Renilla luciferase gene and a linker sequence fused directly to the 3′-end of the luciferase gene were introduced into the replicon construct using an Asc1 restriction site located in core, directly upstream of the neomycin marker gene. The adaptive mutation at position 1179 (serine to isoleucine) was also introduced (Blight K J, Kolykhalov, A A, Rice, C M, Science 290(5498):1972-1974). A stable cell line constitutively expressing this HCV replicon construct was generated by first linearizing plasmid DNAs with ScaI. RNA transcripts were synthesized in vitro using the T7 MegaScript transcription kit (Ambion, Austin, Tex.) according to manufacturer's directions. In vitro transcripts of the cDNA were transfected into the human hepatoma cell line, HUH-7. […] Resulting cell lines were characterized for positive and negative strand RNA production and protein production over time.
# A stable HCV replicon luciferase reporter cell line representing the genotype 1a H77 strain (Yanagi M, Purcell R H, Emerson S U, et al. Transcripts from a single full-length cDNA clone of hepatitis C virus are infectious when directly transfected into the liver of a chimpanzee. Proc Natl Acad Sci USA 1997; 94(16):8738-8743) was generated as described previously for the genotype 1b (Con1) replicon luciferase cell line. The replicon construct was modified by introducing mutations were introduced into the genes encoding the NS3 helicase domain (proline replaced by leucine at position 1496) and NS5A (serine to isoleucine at position 2204) to improve replication in cell culture.
# (§2) HCV replicon luciferase assays were developed to monitor the inhibitory effects of compounds described in the disclosure on HCV genotypes 1a and 1b viral replication. HUH-7 cells, constitutively expressing the HCV replicon, were grown in Dulbecco's Modified Eagle Media (DMEM) (Gibco-BRL) containing 10% Fetal calf serum (FCS) (Sigma) and 1 mg/mL G418 (Gibco-BRL). Compounds were serially diluted 3 folds in DMSO for a twenty-point titration and subsequently transferred to sterile 384-well tissue-culture treated plates (Corning cat #3571). The plates were then seeded with 50 μL of cells at a density of 3.0×10^3 cells/well in DMEM containing 4% FCS (final DMSO concentration at 0.5%). After 3 days incubation at 37° C., cells were analyzed for Renilla Luciferase activity using the EnduRen as substrate (Promega cat #E6485). The EnduRen substrate was diluted in DMEM and then added to the plates to a final concentration of 7.5 μM. The plates were incubated for 2 hrs at 37° C. and then read immediately for 30 seconds with Viewlux Imager (PerkinElmer) using a luminescence program. To assess cytotoxicity of compounds, CC50 values were generated by multiplexing the EnduRen-containing plates with Cell Titer-Blue (Promega, cat #G8082). Cell-Titer Blue (3 μL) was added to each well and incubated for 8 hrs at 37° C. The fluorescence signal from each well was read, with an excitation wavelength at 525/10 nm and an emission wavelength of 598/10 nm, using the Viewlux Imager.
# (§3) The EC50 values for compounds were calculated by using a four-parameter logistic equation: y=A+((B−A)/(1+((C/x)^D))), where A and B denotes minimal and maximal % inhibition, respectively, C is the EC50, D is the hill slope and x represents compound concentration.
# [2] = tested on: HCV genotype 1b (Con1) replicon in HUH-7 cells; assay: HCV replicon luciferase reporter assay, genotype 1b; type: cell-based; conditions: Hepatitis C virus, 72 h, HCV genotype 1b replicon, 3 days incubation, Renilla luciferase, range classes
# Description: as §1, with “time. […]” for “time.”
# as §2, §3
Structure (SMILES),EC50 [1],EC50 [2]
"COc1cnc(O[C@@H]2C[C@H]3C(=O)N[C@]4(C(=O)NS(=O)(=O)C5CC5)C[C@H]4/C=C\[C@H](C)CCC[C@@H](C)[C@H](NC(=O)OC(C)(C)C(F)(F)F)C(=O)N3C2)c2ccccc12 [Compound 3, 1,1,1-trifluoro-2-methylpropan-2-yl (2R,6S,7R,11R,13aS,14aR,16aS,Z)-14a-(cyclopropylsulfonylcarbamoyl)-2-(4-methoxyisoquinolin-1-yloxy)-7,11-dimethyl-5,16-dioxo-1,2,3,5,6,7,8,9,10,11,13a,14,14a,15,16,16a-hexadecahydrocyclopropa[e]pyrrolo[1,2-a][1,4]diazacyclopentadecin-6-ylcarbamate]",0.2 to 1 nM,0.2 to 1 nM
"COc1ccc2c(O[C@@H]3C[C@H]4C(=O)N[C@]5(C(=O)NS(=O)(=O)C6(CF)CC6)C[C@H]5/C=C\[C@H](C)CCC[C@@H](C)[C@H](NC(=O)OC(C)(C)C)C(=O)N4C3)ncc(OC)c2c1 [Compound 11, tert-butyl (2R,6S,7R,11R,13aS,14aR,16aS,Z)-2-(4,6-dimethoxyisoquinolin-1-yloxy)-14a-(1-(fluoromethyl)cyclopropylsulfonylcarbamoyl)-7,11-dimethyl-5,16-dioxo-1,2,3,5,6,7,8,9,10,11,13a,14,14a,15,16,16a-hexadecahydrocyclopropa[e]pyrrolo[1,2-a][1,4]diazacyclopentadecin-6-ylcarbamate]",2.01 to 5 nM,0.2 to 1 nM
COc1ccc2c(O[C@@H]3C[C@H]4C(=O)N[C@]5(C(=O)NS(=O)(=O)C6(CF)CC6)C[C@H]5/C=C\[C@@H](C)CCC[C@@H](C)[C@H](NC(=O)OC(C)(C)C(F)(F)F)C(=O)N4C3)ncc(OC)c2c1 [Compound 13],5.01 to 68 nM,2.01 to 5 nM
"COc1cnc(O[C@@H]2C[C@H]3C(=O)N[C@]4(C(=O)NS(=O)(=O)C5CC5)C[C@H]4/C=C\[C@@H](C)CCC[C@@H](C)[C@H](NC(=O)OC(C)(C)C)C(=O)N3C2)c2cccc(Cl)c12 [Compound 6, tert-butyl (2R,6S,7R,11S,13aS,14aR,16aS,Z)-2-(5-chloro-4-methoxyisoquinolin-1-yloxy)-14a-(cyclopropylsulfonylcarbamoyl)-7,11-dimethyl-5,16-dioxo-1,2,3,5,6,7,8,9,10,11,13a,14,14a,15,16,16a-hexadecahydrocyclopropa[e]pyrrolo[1,2-a][1,4]diazacyclopentadecin-6-ylcarbamate]",1.01 to 2 nM,2.01 to 5 nM
"COc1cnc(O[C@@H]2C[C@H]3C(=O)N[C@]4(C(=O)NS(=O)(=O)C5CC5)C[C@H]4/C=C\[C@H](C)CCC[C@@H](C)[C@H](NC(=O)OC(C)(C)C(F)(F)F)C(=O)N3C2)c2cccc(Cl)c12 [Compound 7, 1,1,1-trifluoro-2-methylpropan-2-yl (2R,6S,7R,11R,13aS,14aR,16aS,Z)-2-(5-chloro-4-methoxyisoquinolin-1-yloxy)-14a-(cyclopropylsulfonylcarbamoyl)-7,11-dimethyl-5,16-dioxo-1,2,3,5,6,7,8,9,10,11,13a,14,14a,15,16,16a-hexadecahydrocyclopropa[e]pyrrolo[1,2-a][1,4]diazacyclopentadecin-6-ylcarbamate]",1.01 to 2 nM,0.2 to 1 nM
"COc1ccc2ncc(O[C@@H]3C[C@H]4C(=O)N[C@]5(C(=O)NS(=O)(=O)C6CC6)C[C@H]5/C=C\[C@H](C)CCC[C@@H](C)[C@H](NC(=O)OC(C)(C)C)C(=O)N4C3)nc2c1 [Compound 28, tert-butyl (2R,6S,7R,11R,13aS,14aR,16aS,Z)-14a-(cyclopropylsulfonylcarbamoyl)-2-(7-methoxyquinoxalin-2-yloxy)-7,11-dimethyl-5,16-dioxo-1,2,3,5,6,7,8,9,10,11,13a,14,14a,15,16,16a-hexadecahydrocyclopropa[e]pyrrolo[1,2-a][1,4]diazacyclopentadecin-6-ylcarbamate]",5.01 to 68 nM,1.01 to 2 nM
"COc1cnc(O[C@@H]2C[C@H]3C(=O)N[C@]4(C(=O)NS(=O)(=O)C5CC5)C[C@H]4/C=C\[C@@H](C)CCC[C@@H](C)[C@H](NC(=O)OC(C)(C)C(F)(F)F)C(=O)N3C2)c2cccc(Cl)c12 [Compound 8, 1,1,1-trifluoro-2-methylpropan-2-yl (2R,6S,7R,11S,13aS,14aR,16aS,Z)-2-(5-chloro-4-methoxyisoquinolin-1-yloxy)-14a-(cyclopropylsulfonylcarbamoyl)-7,11-dimethyl-5,16-dioxo-1,2,3,5,6,7,8,9,10,11,13a,14,14a,15,16,16a-hexadecahydrocyclopropa[e]pyrrolo[1,2-a][1,4]diazacyclopentadecin-6-ylcarbamate]",2.01 to 5 nM,1.01 to 2 nM
"COc1cc2c(OC)cnc(O[C@@H]3C[C@H]4C(=O)N[C@]5(C(=O)NS(=O)(=O)C6(C)CC6)C[C@H]5/C=C\[C@H](C)CCC[C@@H](C)[C@H](NC(=O)OC(C)(C)C(F)(F)F)C(=O)N4C3)c2cc1F [Compound 15, 1,1,1-trifluoro-2-methylpropan-2-yl (2R,6S,7R,11R,13aS,14aR,16aS,Z)-2-(7-fluoro-4,6-dimethoxyisoquinolin-1-yloxy)-7,11-dimethyl-14a-(1-methylcyclopropylsulfonylcarbamoyl)-5,16-dioxo-1,2,3,5,6,7,8,9,10,11,13a,14,14a,15,16,16a-hexadecahydrocyclopropa[e]pyrrolo[1,2-a][1,4]diazacyclopentadecin-6-ylcarbamate]",1.01 to 2 nM,1.01 to 2 nM
"COc1ccc2c(O[C@@H]3C[C@H]4C(=O)N[C@]5(C(=O)NS(=O)(=O)C6CC6)C[C@H]5/C=C\[C@H](C)CCC[C@@H](C)[C@H](NC(=O)OC(C)(C)C)C(=O)N4C3)ncc(OC)c2c1 [Compound 21, tert-butyl (2R,6S,7R,11R,13aS,14aR,16aS,Z)-14a-(cyclopropylsulfonylcarbamoyl)-2-(4,6-dimethoxyisoquinolin-1-yloxy)-7,11-dimethyl-5,16-dioxo-1,2,3,5,6,7,8,9,10,11,13a,14,14a,15,16,16a-hexadecahydrocyclopropa[e]pyrrolo[1,2-a][1,4]diazacyclopentadecin-6-ylcarbamate]",1.01 to 2 nM,0.2 to 1 nM
COc1ccc2ncc(O[C@@H]3C[C@H]4C(=O)N[C@]5(C(=O)NS(=O)(=O)C6(C)CC6)C[C@H]5/C=C\[C@@H](C)CCC[C@@H](C)[C@H](NC(=O)OC(C)(C)C(F)(F)F)C(=O)N4C3)nc2c1 [Compound 18],5.01 to 68 nM,5.01 to 68 nM
"C[C@@H]1CCC[C@@H](C)/C=C\[C@@H]2C[C@@]2(C(=O)NS(=O)(=O)C2CC2)NC(=O)[C@@H]2C[C@@H](Oc3nccc4ccccc34)CN2C(=O)[C@H]1NC(=O)OC(C)(C)C(F)(F)F [Compound 34, 1,1,1-trifluoro-2-methylpropan-2-yl (2R,6S,7R,11R,13aS,14aR,16aS,Z)-14a-(cyclopropylsulfonylcarbamoyl)-2-(isoquinolin-1-yloxy)-7,11-dimethyl-5,16-dioxo-1,2,3,5,6,7,8,9,10,11,13a,14,14a,15,16,16a-hexadecahydrocyclopropa[e]pyrrolo[1,2-a][1,4]diazacyclopentadecin-6-ylcarbamate]",2.01 to 5 nM,0.2 to 1 nM
